Reference: the NIST ThermoML archive (doi:10.1016/j.fluid.2005.05.018)
± gives the expanded uncertainty stated by the source.

What was measured:
[1] = refractive index (Na D-line) (dimensionless); settings: 293.15 K; 101.33 kPa; Liquid; Standard Abbe refractometry
[2] = 101.33 kPa, Liquid

refractive index [1]	mass density ([2]; 298.15 K)	mass density ([2]; 293.15 K)	SMILES
1.3751 ± 0.0007	866.4 ± 0.5 kg/m3	–	CC(=O)OC(C)C [1-methylethyl ethanoate]
1.383 ± 0.0007	969.2 ± 0.3 kg/m3	–	CCOC(=O)OCC [diethyl carbonate]
1.3592 ± 0.0007	–	789.4 ± 0.6 kg/m3	CCO [ethanol]
1.3899 ± 0.0007	–	879 ± 0.5 kg/m3	CCCC(=O)OCC [ethyl butanoate]
